Assay results from patent US5272169A, “(N-benzyl) acetaldehyde bicyclic heterocycles useful as topical antiinflammatories” (The DuPont Merck Pharmaceutical Company, priority 1993, dated 1993).

Tested on: TPA-induced edema in murine skin
Assay: TPA-induced edema in murine skin (mouse ear), topical anti-inflammatory activity
Format: in vivo, mouse (male CF-1)
Conditions: TPA 1 μg/ear, compound topically in acetone at 100 ug/ear just prior to TPA, 4 h after TPA, 6 mm punch biopsy weight
Description: Anti-inflammatory activities of the investigational compounds were studied in murine skin using the following protocol. Edema was induced by tetradecanoyl phorbol acteate (TPA) (1 μg/ear) [Marks, F., Furstenberger, G., Kownatzki, E., Prostaglandin E Mediated Stimulation of Mouse Epidermis in vivo by Divalent Cation Ionophore A23187 and by Tumor Promotor TPA, Cancer Res. 1981, 41:696-702]. Male CF-1 (Charles River) […] were used. Investigational compounds (in acetone at 100 ug/ear) were applied to one ear just prior to application of the inflammagen. Four hours after TPA application, edema was determined by comparing the weights of 6 mm punch biopsies from control (solvent) and inflammagen-treated ears. Percent inhibitions were calculated using standard equations.

Row | SMILES | % Inhibition [%]
1 | O=CCc1ccc(Cn2cnc3ccccc32)cc1 [Example 1 (Part D), 4-(benzimidazol-1'-ylmethyl)phenylacetaldehyde] | 63
2 | O=CCc1ccc(Cn2ncc3ccccc32)cc1 [Example 2 (Part D), 4-(indazol-1'-ylmethyl)phenylacetaldehyde] | 98
3 | O=CCc1ccc(Cn2nnc3ccccc32)cc1 [Example 3 (Part D), 4-(benzotriazol-1'-ylmethyl)phenylacetaldehyde] | 46
